Measurements: ChEMBL document CHEMBL3872259, “Synthesis, characterization, and in vitro SAR evaluation of N,N'-bis(arylmethyl)-C2-alkyl substituted imidazolium salts” (Bioorg Med Chem Lett, 2017)

Assays:
[1] = Antiproliferative activity against human HOP62 cells assessed as cell growth at 10 uM measured after 48 hrs by sulforhodamine B assay relative to control; type: functional; details: HOP-62, 48 h, read-out: Activity
[2] = Antiproliferative activity against human EKVX cells assessed as cell growth at 10 uM measured after 48 hrs by sulforhodamine B assay relative to control; type: functional; details: read-out: Activity
[3] = Antiproliferative activity against human A549/ATCC cells assessed as cell growth at 10 uM measured after 48 hrs by sulforhodamine B assay relative to control; type: functional; details: A549, 48 h, read-out: Activity
[4] = Antiproliferative activity against human NCI-H460 cells assessed as reduction in cell viability measured after 72 hrs by MTT assay; type: functional, cell-based; details: NCI-H460, 72 h; for CC50: read-out: LC50 (the source's name)
[5] = Antiproliferative activity against human NCI-H1975 cells assessed as reduction in cell viability measured after 72 hrs by MTT assay; type: functional, cell-based; details: NCI-H1975, 72 h
[6] = Antiproliferative activity against human HCC827 cells assessed as reduction in cell viability measured after 72 hrs by MTT assay; type: functional, cell-based; details: HCC827, 72 h
[7] = Antiproliferative activity against human A549 cells assessed as reduction in cell viability measured after 72 hrs by MTT assay; type: functional, cell-based; details: A549, 72 h
[8] = Aqueous solubility of the compound; type: physicochemical; details: buffer
[9] = Antiproliferative activity against human HOP92 cells assessed as cell growth at 10 uM measured after 48 hrs by sulforhodamine B assay relative to control; type: functional; details: HOP-92, 48 h, read-out: Activity
[10] = Antiproliferative activity against human NCI-H226 cells assessed as cell growth at 10 uM measured after 48 hrs by sulforhodamine B assay relative to control; type: functional; details: NCI-H226, 48 h, read-out: Activity
[11] = Antiproliferative activity against human NCI-H23 cells assessed as cell growth at 10 uM measured after 48 hrs by sulforhodamine B assay relative to control; type: functional; details: NCI-H23, 48 h, read-out: Activity
[12] = Antiproliferative activity against human NCI-H322M cells assessed as cell growth at 10 uM measured after 48 hrs by sulforhodamine B assay relative to control; type: functional; details: read-out: Activity
[13] = Antiproliferative activity against human NCI-H460 cells assessed as cell growth at 10 uM measured after 48 hrs by sulforhodamine B assay relative to control; type: functional; details: NCI-H460, 48 h, read-out: Activity
[14] = Antiproliferative activity against human NCI-H522 cells assessed as cell growth at 10 uM measured after 48 hrs by sulforhodamine B assay relative to control; type: functional; details: NCI-H522, 48 h, read-out: Activity
[15] = Growth inhibition of human EKVX cells measured after 48 hrs by sulforhodamine B assay; type: functional; details: for CC50: read-out: LC50 (the source's name)
[16] = Growth inhibition of human HOP62 cells measured after 48 hrs by sulforhodamine B assay; type: functional; details: HOP-62, 48 h; for CC50: read-out: LC50 (the source's name)
[17] = Growth inhibition of human HOP92 cells measured after 48 hrs by sulforhodamine B assay; type: functional; details: HOP-92, 48 h; for CC50: read-out: LC50 (the source's name)
[18] = Growth inhibition of human NCI-H226 cells measured after 48 hrs by sulforhodamine B assay; type: functional; details: NCI-H226, 48 h; for CC50: read-out: LC50 (the source's name)
[19] = Growth inhibition of human NCI-H23 cells measured after 48 hrs by sulforhodamine B assay; type: functional; details: NCI-H23, 48 h; for CC50: read-out: LC50 (the source's name)
[20] = Growth inhibition of human NCI-H322M cells measured after 48 hrs by sulforhodamine B assay; type: functional; details: for CC50: read-out: LC50 (the source's name)
[21] = Growth inhibition of human NCI-H522 cells measured after 48 hrs by sulforhodamine B assay; type: functional; details: NCI-H522, 48 h

`Cc1n(Cc2ccc3ccccc3n2)cc[n+]1Cc1ccc2ccccc2c1.[Br-]` gave a growth at 10 µM [1] of 13.3%, a growth at 10 µM [2] of 48.3% and a growth at 10 µM [3] of 33.5%. The GI50 [4] was 0.959 µM, the IC50 [4] was 2 µM and the TGI [4] was 14.4 µM. For the same molecule, the CC50 [4] was 47 µM, the IC50 [5] was less than 1 µM and the IC50 [6] was 9 µM. For the same molecule, the GI50 [7] was 1.31 µM, the IC50 [7] was 3 µM and the LC50 [7] was 43.5 µM. It also gave a TGI [7] of 13.1 µM, a solubility [8] of less than 5 mM and a growth at 10 µM [9] of -6.1%. For the same molecule, the growth at 10 µM [10] was 12.7%, the growth at 10 µM [11] was 2.01% and the growth at 10 µM [12] was 26%. It also gave a growth at 10 µM [13] of 10.2%, a growth at 10 µM [14] of 3.95% and a GI50 [15] of 3.93 µM. For the same molecule, the TGI [15] was 27.6 µM, the CC50 [15] was greater than 100 µM and the GI50 [16] was 1.53 µM. The TGI [16] was 6.66 µM, the CC50 [16] was 34.5 µM and the GI50 [17] was 0.518 µM. It also gave a TGI [17] of 3.81 µM, a CC50 [17] of 27 µM and a GI50 [18] of 1.86 µM. The TGI [18] was 10.9 µM, the CC50 [18] was 47.5 µM and the GI50 [19] was 1.83 µM. The TGI [19] was 13.4 µM, the CC50 [19] was 62 µM and the GI50 [20] was 3.27 µM. For the same molecule, the TGI [20] was 14.7 µM, the CC50 [20] was 40.4 µM and the GI50 [21] was 0.271 µM. For the same molecule, the LC50 (50% lethal concentration) [21] was 12.4 µM and the TGI [21] was 1.46 µM.

For `CCc1n(Cc2ccc3ccccc3c2)cc[n+]1Cc1ccc2ccccc2n1.[Cl-]`, the IC50 [5] was less than 1 µM, the IC50 [6] was 2 µM and the solubility [8] was greater than 10 mM.

`[Cl-].c1ccc(-c2n(Cc3ccc4ccccc4n3)cc[n+]2Cc2ccc3ccccc3c2)cc1` gave an IC50 [4] of 3 µM, an IC50 [5] of 2 µM and an IC50 [6] of 6 µM. For the same molecule, the IC50 [7] was 4 µM and the solubility [8] was greater than 10 mM.

Work on `[Cl-].c1ccc(-c2n(Cc3ccc4ccccc4n3)cc[n+]2Cc2ccc3ccccc3n2)cc1` yielded an IC50 [4] of 8 µM, an IC50 [5] of 2 µM and an IC50 [6] of 8 µM. For the same molecule, the IC50 [7] was 14 µM and the solubility [8] was greater than 80 mM.

Molecule `OCc1n(Cc2ccc3ccccc3c2)cc[n+]1Cc1ccc2ccccc2c1.[Br-]` has a growth at 10 µM [1] of 75%, a growth at 10 µM [2] of 83.3% and a growth at 10 µM [3] of 68.6%. It also gave an IC50 [4] of 14 µM, an IC50 [5] of 7 µM and an IC50 [6] of 12 µM. The IC50 [7] was greater than 30 µM, the solubility [8] was less than 0.5 mM and the growth at 10 µM [9] was -2.81%. The growth at 10 µM [10] was 61.6%, the growth at 10 µM [11] was 67.7% and the growth at 10 µM [12] was 78.9%. It also gave a growth at 10 µM [13] of 53.1%.

Molecule `CCCc1n(Cc2ccc3ccccc3n2)cc[n+]1Cc1ccc2ccccc2c1.[Cl-]` has a growth at 10 µM [1] of 8.38%, a growth at 10 µM [2] of 41.6% and a growth at 10 µM [3] of 39.1%. For the same molecule, the GI50 [4] was 0.658 µM, the IC50 [4] was 3 µM and the TGI [4] was 10.6 µM. For the same molecule, the CC50 [4] was 46.5 µM, the IC50 [5] was 2 µM and the IC50 [6] was 6 µM. The GI50 [7] was 1.88 µM, the IC50 [7] was 3 µM and the LC50 [7] was 37.3 µM. It also gave a TGI [7] of 11.8 µM, a solubility [8] greater than 10 mM and a growth at 10 µM [9] of -18.6%. The growth at 10 µM [10] was 12.3%, the growth at 10 µM [11] was -11.6% and the growth at 10 µM [12] was 25.7%. It also gave a growth at 10 µM [13] of 7.73%, a growth at 10 µM [14] of -0.78% and a GI50 [15] of 2.16 µM. For the same molecule, the TGI [15] was 14.9 µM, the CC50 [15] was 52.7 µM and the GI50 [16] was 1.63 µM. It also gave a TGI [16] of 5.38 µM, a CC50 [16] of 26.1 µM and a GI50 [17] of 0.188 µM. It also gave a TGI [17] of 1.12 µM, a CC50 [17] of 9.13 µM and a GI50 [18] of 1.2 µM. It also gave a TGI [18] of 7.6 µM, a CC50 [18] of 39.7 µM and a GI50 [19] of 0.479 µM. For the same molecule, the TGI [19] was 10.6 µM, the CC50 [19] was 52 µM and the GI50 [20] was 3.46 µM. For the same molecule, the TGI [20] was 15 µM, the CC50 [20] was 39.6 µM and the GI50 [21] was 0.249 µM. It also gave an LC50 (50% lethal concentration) [21] of 4.59 µM and a TGI [21] of 1.13 µM.
